Reference: US20120282224A1, “MARKERS ASSOCIATED WITH RIBAVIRIN-INDUCED ANEMIA” (priority 2009, published 2012)
Each block holds one molecule with its values, some of them ahead of it.

Key:
[1] = human, in vivo, 4 weeks
From the text: In order to identify genetic contributions to treatment response, the inventors carried out a genome-wide association study on genomic samples obtained from the IDEAL study, the design of which was reported in McHutchison et al., J. Viral Hepatol., Vol. 15, No. 7, July 2008, pp. 475-481). Briefly, in the IDEAL study, treatment-naive patients chronically infected with HCV genotype 1 were randomized (1:1:1) to receive one of the following 48-week treatment regimens: peginterferon alfa-2b (PEG2b) at 1.5 mcg/kg/week plus ribavirin (RBV); PEG2b at 1.0 mcg/kg/week plus RBV; or peginterferon alfa-2a (PEG2a) at 180 meg/week+RBV. In the PEG2b regimens, patients weighing 40-65 kg received 800 mg/day RBV; patients weighing more than 65 and up to 85 kg received 1000 mg/day RBV; patients weighing more than 85 and up to 105 kg received 1200 mg/day RBV; and patients weighing more than 105 kg received 1400 mg/day RBV). In the PEG2a regimen patients weighing <75 kg received 1000 mg/day of RBV while patients weighing ≧75 kg received 1200 mg/day of RBV. Hemoglobin values were measured at baseline (before the first dose of treatment), at week 2, 4, 8, 12, and then every 6 weeks up to treatment completion (48 weeks total). Follow-up measures were obtained at 4, 12 and 24 weeks post-treatment. […]

erythrocytes = erythrocytes versus plasma; cited from earlier work
[2] = taribavirin with PegIntron (peginterferon alfa-2b), clinical trials; cited from earlier work

patients with Hb concentrations <10 g/dL (severe anemia) [1]: 13%
Structure (SMILES): NC(=O)c1ncn([C@@H]2O[C@H](CO)[C@@H](O)[C@H]2O)n1 [RBV, 1-[(2R,3R,4S,5R)-3,4-dihydroxy-5-(hydroxymethyl)oxolan-2-yl]-1H-1,2,4-triazole-3-carboxamide]

Structure (SMILES): NC(=O)c1ncn([C@@H]2O[C@H](COP(=O)(O)OP(=O)(O)OP(=O)(O)O)[C@@H](O)[C@H]2O)n1 [RTP]
RTP concentration in erythrocytes relative to plasma (erythrocytes): 60 fold

Structure (SMILES): N=C(N)c1ncn([C@@H]2O[C@H](CO)[C@@H](O)[C@H]2O)n1 [taribavirin, 1-(β-D-Ribofuranosyl)-1,2,4-triazole-3-carboximide]
anemia compared with patients treated with ribavirin and PegIntron [2]: less anemia
